Source: patent US7364866B2, “Drosophila G protein coupled receptors, nucleic acids, and methods related to the same” (Pharmacia & Upjohn Company, priority 1999, dated 2008)
Non-standard residues stand in square brackets, D forms with d. No end group written: not given here. pGlu = O=C1CC[C@@H](C(=O)O)N1

Experiments:
DmGPCR5 = DmGPCR5 (Drosophila melanogaster, UniProt P30975, L70Q); assay: biochemical; design: expressed in transfected cells; host or cells: CHO-1000A (so in the source), transient; settings: DmGPCR5; given in words
Experimental: (§1) The transfected cells were washed once with ice-cold Dulbecco's phosphate buffered saline (PBS), 5 ml per 10 cm plate, and scraped into 5 ml of the same buffer. Cell suspensions from multiple plates were combined and centrifuged at 500×g for 10 min at 4° C. The cell pellet was reconstituted in ice-cold TEE (25 mM TRIS, 5 mM EGTA, 5 mM EDTA). Convenient aliquots were snap-frozen in liquid nitrogen and stored at −70° C. After thawing, the cells were homogenized and centrifuged at 4° C., 500×g for 5 minutes to pellet nuclei and unbroken cells. The supernatant was centrifuged at 47,000×g for 30 minutes at 4° C. The membrane pellet was washed once with TEE, resuspended in 20 mM HEPES, pH 7.4, 100 mM NaCl, 10 mM MgCl2, 1 mM EDTA (assay buffer), aliquoted and frozen in liquid nitrogen. Membrane aliquots were stored at −70° C. Membrane protein concentration was determined using the BCA Protein Assay Reagent from Pierce (Rockford, Ill.) and BSA as standard.
Initially, reaction mixtures were prepared in 96-well polypropylene plates (Nunc). In each well, peptide aqueous solution (20 μl, 10×), or water controls (20 μl), 18.2 μM GDP in assay buffer (0.11 ml, 10 μM final), and membranes suspended in assay buffer (50 μl, 10 μg membrane protein) were mixed and placed on ice. […] Then the membranes were washed 3 times with 0.25 ml ice-cold wash buffer/well (10 mM HEPES, 10 mM MgCl2, pH 7.4) and vacuum filtered. […] Each treatment was carried out in triplicates.
(§2) Ligand-induced stimulation of [^35S]GTPγS binding was expressed as fold increase over the basal activity with no ligand added. Each treatment was run either in triplicate, or, on occasion, in duplicate, and the binding (cpm) was calculated as means +/− standard deviations. Dose-response curves for the receptor/ligand systems were analyzed using a non-linear least square SAS model, y=Bmax X/(Kd+X). Other dose-response curves were analyzed using Prism (GraphPad Software, Inc. San Diego, Calif.) and the following equation y=Bottom+(Top−Bottom)/(1+10^LogEC50-X).
(§3) Originally, we have chosen the GTPγS assay as a functional assay because agonist-driven stimulation of GTPγS reflects early events in the DmGPCR activation cascade, regardless of further activation pathways of various down-stream signaling events. This appears especially useful for the assessment of possible activation of orphan DmGPCRs with unknown functions and unknown signaling pathways. The GTPγS assay was carried out with membranes prepared from CHO cells transiently transfected with DNA encoding Drosophila GPCRs using a 96-well MultiScreen G/FB filter plates and a MultiScreen vacuum manifold (Millipore) for filtration. Since the GTPγS assay is known to poorly recognize GPCRs coupled to the Gq class of G-proteins, a Ca^+2 mobilization assay based on a FLIPR readout was used as well to evaluate Gq-coupled orphan GPCRs in CHO cells transiently transfected with DNA encoding Drosophila GPCRs.

DmGPCR9 = assay: calcium mobilization assay (FLIPR); type: cell-based, Drosophila melanogaster; settings: tested at 10 μM
Experimental: (§4) Changes in intracellular calcium levels are another recognized indicator of G protein-coupled receptor activity, and such assays can be employed to screen for modulators of DmGPCR activity. For example, CHO cells stably transfected with a DmGPCR expression vector are plated at a density of 4×10^4 cells/well in Packard black-walled, 96-well plates specially designed to discriminate fluorescence signals emanating from the various wells on the plate. The cells are incubated for 60 minutes at 37° C. in modified Dulbecco's PBS (D-PBS) containing 36 mg/L pyruvate and 1 g/L glucose and one of four calcium indicator dyes (Fluo-3™ AM, Fluo-4™ AM, Calcium Green™-1 AM, or Oregon Green™ 488 BAPTA-1 AM), each at a concentration of 4 μM. […]
(§5) A calcium response is initiated by the addition of one or more candidate receptor agonist compounds, calcium ionophore A23187 (10 μM; positive control), or ATP (4 μM; positive control). Fluorescence is measured by Molecular Device's FLIPR with an argon laser (excitation at 488 nm). […] Basal fluorescence of cells was measured for 20 seconds prior to addition of candidate agonist, ATP, or A23187, and the basal fluorescence level was subtracted from the response signal. The calcium signal is measured for approximately 200 seconds, taking readings every two seconds. […]

DmGPCR6a = biological target: T1, DmGPCR6a (Drosophila melanogaster, UniProt P25931, I47L); assay: [35S]GTPγS binding assay, membranes of transfected CHO cells; type: biochemical; settings: peptide tested at 5 μM
T1 construct: expressed in transfected cells; host or cells: CHO cells, transient
Experimental: as §1, with “The membrane pellet was washed once with TEE, resuspended in 20 mM HEPES, pH 7.4, 100 mM NaCl, 10 mM MgCl2, 1 mM EDTA (assay buffer), aliquoted and frozen in liquid nitrogen. Membrane aliquots were stored at −70° C.” left out, “standard. […]” for “standard.”
as §2, with “y=Bottom+(Top−Bottom)/(1+10^LogEC50-X). […]” for “y=Bottom+(Top−Bottom)/(1+10^LogEC50-X).”

Dmgpcr6aL = biological target: T2, Dmgpcr6aL (Drosophila melanogaster, UniProt P25931, I47L); assay: calcium mobilization assay (FLIPR); type: cell-based; settings: FaRPs tested at 10 μM, active sequences listed in Table 7 (6aL and 6bL)
T2 construct: A new 5′ PCR primer was designed that incorporated the PnuFlyPep15731 start codon; expressed in transfected cells; host or cells: CHO-K1 or CHO-10001A, transient
Experimental: as §4, §5

Dmgpcr6bL = biological target: T3, Dmgpcr6bL (Drosophila melanogaster, UniProt P25931, I47L); assay: calcium mobilization assay (FLIPR); type: cell-based; settings: FaRPs tested at 10 μM, active sequences listed in Table 7 (6aL and 6bL)
T3 construct: A new 5′ PCR primer was designed that incorporated the PnuFlyPep15731 start codon; expressed in transfected cells; host or cells: CHO-K1 or CHO-10001A, transient
Experimental: as §4, §5

DmGPCR7 = assay: FLIPR analysis of intracellular calcium release; type: cell-based, Drosophila melanogaster; settings: DmGPCR7 in CHO-10001A cells; peptides with C-terminal HSWGa; given in words
Experimental: Changes in intracellular calcium levels are another recognized indicator of G protein-coupled receptor activity, and such assays can be employed to screen for modulators of DmGPCR activity. For example, CHO cells stably transfected with a DmGPCR expression vector are plated at a density of 4×10^4 cells/well in Packard black-walled, 96-well plates specially designed to discriminate fluorescence signals emanating from the various wells on the plate. The cells are incubated for 60 minutes at 37° C. in modified Dulbecco's PBS (D-PBS) containing 36 mg/L pyruvate and 1 g/L glucose and one of four calcium indicator dyes (Fluo-3™ AM, Fluo-4™ AM, Calcium Green™-1 AM, or Oregon Green™ 488 BAPTA-1 AM), each at a concentration of 4 μM. Plates are washed once with modified D-PBS and incubated for 10 minutes at 37° C. to remove residual dye from the cellular membrane. In addition, a series of washes with modified D-PBS is performed immediately prior to activation of the calcium response.
A calcium response is initiated by the addition of one or more candidate receptor agonist compounds, calcium ionophore A23187 (10 μM; positive control), or ATP (4 μM; positive control). Fluorescence is measured by Molecular Device's FLIPR with an argon laser (excitation at 488 nm). (See, e.g., Kuntzweiler et al., Drug Dev. Res., 1998, 44(1), 14-20). The F-stop for the detector camera was set at 2.5, and the length of exposure was 0.4 milliseconds. Basal fluorescence of cells was measured for 20 seconds prior to addition of candidate agonist, ATP, or A23187, and the basal fluorescence level was subtracted from the response signal. The calcium signal is measured for approximately 200 seconds, taking readings every two seconds. Calcium ionophore A23187 and ATP increase the calcium signal 200% above baseline levels. In general, activated GPCRs increase the calcium signal approximately 10-15% above baseline signal.
as §3

DmGPCR4 = assay: [35S]GTPγS binding assay, membranes of transfected CHO cells; type: biochemical, Drosophila melanogaster; settings: given in words
Experimental: as §1, with “The membrane pellet was washed once with TEE, resuspended in 20 mM HEPES, pH 7.4, 100 mM NaCl, 10 mM MgCl2, 1 mM EDTA (assay buffer), aliquoted and frozen in liquid nitrogen. Membrane aliquots were stored at −70° C.” left out, “standard. […]” for “standard.”
as §2, with “y=Bottom+(Top−Bottom)/(1+10^LogEC50-X). […]” for “y=Bottom+(Top−Bottom)/(1+10^LogEC50-X).”

[1] = system: first Drosophila allatostatin receptor; settings: via Gi/Go pathways; cited from earlier work
DmGPCR8 [2] = assay: [35S]GTPγS binding assay, dose response; type: biochemical, Drosophila melanogaster; settings: DmGPCR8 in CHO-10001A cells; given in words
Experimental: as §1, with “The membrane pellet was washed once with TEE, resuspended in 20 mM HEPES, pH 7.4, 100 mM NaCl, 10 mM MgCl2, 1 mM EDTA (assay buffer), aliquoted and frozen in liquid nitrogen. Membrane aliquots were stored at −70° C.” left out, “standard. […]” for “standard.”
as §2, with “y=Bottom+(Top−Bottom)/(1+10^LogEC50-X). […]” for “y=Bottom+(Top−Bottom)/(1+10^LogEC50-X).”
Target sequence in this assay (as listed by the source): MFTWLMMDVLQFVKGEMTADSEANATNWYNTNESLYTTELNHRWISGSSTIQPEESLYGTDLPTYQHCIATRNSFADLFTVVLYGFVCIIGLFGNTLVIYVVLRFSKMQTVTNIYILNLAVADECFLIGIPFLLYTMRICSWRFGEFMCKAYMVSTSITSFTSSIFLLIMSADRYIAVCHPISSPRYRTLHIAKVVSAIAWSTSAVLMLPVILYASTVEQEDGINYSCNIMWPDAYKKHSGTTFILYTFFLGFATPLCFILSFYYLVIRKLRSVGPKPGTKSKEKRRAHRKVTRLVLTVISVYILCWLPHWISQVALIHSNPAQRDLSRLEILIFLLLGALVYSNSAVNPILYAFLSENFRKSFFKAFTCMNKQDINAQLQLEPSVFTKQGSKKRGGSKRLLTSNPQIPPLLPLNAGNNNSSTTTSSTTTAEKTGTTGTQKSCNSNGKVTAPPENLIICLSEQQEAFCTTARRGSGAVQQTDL

DmGPCR8 [3] = assay: direct calcium mobilization assay (FLIPR); type: cell-based, Drosophila melanogaster; settings: DmGPCR8 without chimeric G-protein
Experimental: as §4, §5
Target sequence in this assay (as listed by the source): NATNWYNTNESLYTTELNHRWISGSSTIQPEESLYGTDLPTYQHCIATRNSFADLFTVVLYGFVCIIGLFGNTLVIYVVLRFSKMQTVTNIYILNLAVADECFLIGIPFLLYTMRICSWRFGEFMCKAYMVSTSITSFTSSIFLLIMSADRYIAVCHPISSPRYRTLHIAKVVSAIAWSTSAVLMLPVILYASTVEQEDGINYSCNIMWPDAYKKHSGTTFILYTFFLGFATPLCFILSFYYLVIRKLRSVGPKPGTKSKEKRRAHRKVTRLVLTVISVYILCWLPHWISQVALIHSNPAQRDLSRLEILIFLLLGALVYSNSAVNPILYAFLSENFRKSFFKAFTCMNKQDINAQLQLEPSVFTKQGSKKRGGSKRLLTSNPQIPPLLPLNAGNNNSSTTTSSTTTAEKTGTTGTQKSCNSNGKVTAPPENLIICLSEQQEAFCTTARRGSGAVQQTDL

DmGPCR7, sequence (as listed by the source): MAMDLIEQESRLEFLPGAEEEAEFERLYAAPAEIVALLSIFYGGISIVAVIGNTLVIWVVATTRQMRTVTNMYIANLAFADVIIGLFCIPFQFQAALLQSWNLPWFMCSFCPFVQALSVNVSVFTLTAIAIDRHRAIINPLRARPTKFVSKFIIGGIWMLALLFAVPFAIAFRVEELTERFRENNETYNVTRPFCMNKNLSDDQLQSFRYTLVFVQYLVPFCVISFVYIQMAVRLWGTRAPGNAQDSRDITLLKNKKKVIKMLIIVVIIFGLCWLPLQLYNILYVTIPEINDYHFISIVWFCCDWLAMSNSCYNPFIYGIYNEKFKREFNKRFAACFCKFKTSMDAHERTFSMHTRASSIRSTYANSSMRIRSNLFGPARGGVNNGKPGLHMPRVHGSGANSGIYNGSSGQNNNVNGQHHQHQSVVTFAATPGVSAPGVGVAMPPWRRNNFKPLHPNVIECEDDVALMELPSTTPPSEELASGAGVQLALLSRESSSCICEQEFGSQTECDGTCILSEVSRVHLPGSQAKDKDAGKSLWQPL
T1 sequence (P25931 16-464 I47L): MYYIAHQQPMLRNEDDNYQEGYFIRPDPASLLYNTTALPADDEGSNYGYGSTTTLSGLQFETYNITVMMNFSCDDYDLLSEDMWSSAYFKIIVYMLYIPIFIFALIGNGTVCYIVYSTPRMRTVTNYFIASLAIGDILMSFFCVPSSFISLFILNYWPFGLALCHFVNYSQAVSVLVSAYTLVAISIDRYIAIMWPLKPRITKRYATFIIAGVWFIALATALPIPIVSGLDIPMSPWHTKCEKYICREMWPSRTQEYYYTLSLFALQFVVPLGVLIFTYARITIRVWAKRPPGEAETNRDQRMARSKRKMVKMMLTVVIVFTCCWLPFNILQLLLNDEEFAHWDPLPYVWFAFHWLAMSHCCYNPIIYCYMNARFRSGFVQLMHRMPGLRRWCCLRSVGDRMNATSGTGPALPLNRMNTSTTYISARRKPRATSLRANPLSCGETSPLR
DmGPCR4, sequence (as listed by the source): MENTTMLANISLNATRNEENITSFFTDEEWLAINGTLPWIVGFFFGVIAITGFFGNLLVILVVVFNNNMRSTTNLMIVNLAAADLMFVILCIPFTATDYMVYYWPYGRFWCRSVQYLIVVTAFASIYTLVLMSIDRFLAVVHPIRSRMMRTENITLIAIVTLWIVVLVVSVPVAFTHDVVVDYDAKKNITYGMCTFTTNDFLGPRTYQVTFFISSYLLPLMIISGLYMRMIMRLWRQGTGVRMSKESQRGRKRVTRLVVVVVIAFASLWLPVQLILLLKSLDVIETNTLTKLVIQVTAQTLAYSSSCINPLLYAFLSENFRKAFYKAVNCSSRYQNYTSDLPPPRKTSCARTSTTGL
DmGPCR9, sequence (as listed by the source): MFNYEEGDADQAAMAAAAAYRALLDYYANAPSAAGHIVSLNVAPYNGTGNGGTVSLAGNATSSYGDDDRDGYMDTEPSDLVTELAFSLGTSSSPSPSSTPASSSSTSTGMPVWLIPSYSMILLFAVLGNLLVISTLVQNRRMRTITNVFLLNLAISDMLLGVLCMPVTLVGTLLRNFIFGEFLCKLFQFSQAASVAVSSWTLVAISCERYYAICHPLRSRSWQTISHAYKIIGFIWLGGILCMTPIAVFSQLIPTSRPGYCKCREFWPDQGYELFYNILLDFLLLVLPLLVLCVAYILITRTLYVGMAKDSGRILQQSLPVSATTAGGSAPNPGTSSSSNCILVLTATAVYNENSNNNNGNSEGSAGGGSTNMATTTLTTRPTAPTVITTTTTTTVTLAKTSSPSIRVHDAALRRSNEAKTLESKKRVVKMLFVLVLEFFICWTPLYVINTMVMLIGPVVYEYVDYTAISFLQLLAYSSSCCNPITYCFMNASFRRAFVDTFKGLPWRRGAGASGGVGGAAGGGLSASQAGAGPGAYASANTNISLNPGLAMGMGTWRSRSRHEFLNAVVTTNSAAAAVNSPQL
DmGPCR5, sequence (P30975 whole entry L70Q): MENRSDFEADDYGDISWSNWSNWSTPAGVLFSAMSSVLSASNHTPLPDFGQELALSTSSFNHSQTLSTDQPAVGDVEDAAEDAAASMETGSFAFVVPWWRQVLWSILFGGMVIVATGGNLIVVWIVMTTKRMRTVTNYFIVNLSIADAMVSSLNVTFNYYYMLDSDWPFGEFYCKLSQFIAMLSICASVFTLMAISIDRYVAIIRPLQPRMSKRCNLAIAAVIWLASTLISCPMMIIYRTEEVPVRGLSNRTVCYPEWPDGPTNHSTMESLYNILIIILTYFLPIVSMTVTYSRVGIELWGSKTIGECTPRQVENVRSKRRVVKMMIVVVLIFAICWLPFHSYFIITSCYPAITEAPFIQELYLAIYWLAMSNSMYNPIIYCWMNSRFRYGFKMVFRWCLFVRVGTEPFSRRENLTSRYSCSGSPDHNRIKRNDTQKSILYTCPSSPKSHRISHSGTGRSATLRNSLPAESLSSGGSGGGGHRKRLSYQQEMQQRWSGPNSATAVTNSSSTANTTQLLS
T2 sequence (P25931 whole entry I47L): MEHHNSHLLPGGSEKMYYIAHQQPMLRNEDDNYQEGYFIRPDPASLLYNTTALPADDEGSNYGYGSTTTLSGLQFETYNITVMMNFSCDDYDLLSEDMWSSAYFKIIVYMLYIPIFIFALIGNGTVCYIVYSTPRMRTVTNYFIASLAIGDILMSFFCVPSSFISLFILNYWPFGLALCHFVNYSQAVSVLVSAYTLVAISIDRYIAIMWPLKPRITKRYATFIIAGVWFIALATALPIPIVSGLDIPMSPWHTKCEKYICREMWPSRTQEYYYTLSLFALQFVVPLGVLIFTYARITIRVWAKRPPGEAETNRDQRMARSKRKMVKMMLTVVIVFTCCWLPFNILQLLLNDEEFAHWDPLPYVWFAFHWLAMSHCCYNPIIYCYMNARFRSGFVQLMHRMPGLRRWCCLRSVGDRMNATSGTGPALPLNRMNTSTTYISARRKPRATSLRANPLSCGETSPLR
T3 sequence (P25931 other isoform, or with tags, fused parts or gaps I47L): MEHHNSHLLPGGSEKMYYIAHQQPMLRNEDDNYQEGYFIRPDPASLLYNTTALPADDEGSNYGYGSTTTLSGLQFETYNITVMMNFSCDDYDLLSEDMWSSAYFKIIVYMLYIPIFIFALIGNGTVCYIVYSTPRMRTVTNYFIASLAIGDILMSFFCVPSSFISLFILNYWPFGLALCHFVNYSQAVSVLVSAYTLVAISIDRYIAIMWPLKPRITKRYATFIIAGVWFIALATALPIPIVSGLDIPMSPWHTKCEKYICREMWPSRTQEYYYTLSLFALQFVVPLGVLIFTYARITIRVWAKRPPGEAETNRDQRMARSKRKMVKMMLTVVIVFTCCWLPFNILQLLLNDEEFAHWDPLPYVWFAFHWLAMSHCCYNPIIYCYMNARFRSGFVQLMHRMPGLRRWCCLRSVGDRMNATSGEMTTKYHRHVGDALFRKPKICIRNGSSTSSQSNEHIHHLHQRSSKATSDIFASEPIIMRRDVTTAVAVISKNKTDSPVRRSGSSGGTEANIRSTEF

APVNSFVGMR [DTK-4, APVNSFVGMR-NH2]
EC50, stimulation of GTPγS binding (DmGPCR5): low micromolar range

FDDYGHLRF-NH2 [unsulfated counterpart of FDDY(SO3H)GHLRF-NH2]
calcium signal (DmGPCR9): very weak calcium signal

FLFQPQRF-NH2 [NPFF]
increase in GTPγS binding above the basal (DmGPCR6a): 4 fold
Ca+2 responses (FLIPR) (Dmgpcr6aL): recognized
Ca+2 responses (FLIPR) (Dmgpcr6bL): recognized

NPFHSWG [Culekinin, NPFHSWGa]
EC50, intracellular calcium release (FLIPR) (DmGPCR7): picomoloar to subnanomolar range

NSVVLGKKQRFHSWGa (NSVVLGKKQRFHSWG-NH2) [DLK-1]
EC50, intracellular calcium release (FLIPR) (DmGPCR7): picomoloar to subnanomolar range

QRFHSWG [DLK-2a, QRFHSWGa]
EC50, intracellular calcium release (FLIPR) (DmGPCR7): picomoloar to subnanomolar range

SRPYSFGL [drostatin-3, Ser-Arg-Pro-Tyr-Ser-Phe-Gly-Leu-NH2]
EC50, GTPγS responses (DmGPCR4): low nanomolar range
functional activation of the receptor [1]: functionally activated

[pGlu]VRFQCYFNPISCF-OH (cysteine pairing not given here) [AST-C]
EC50, GTPγS-binding responses (DmGPCR8 [2]): low nanomolar range
activity in direct calcium mobilization assay (FLIPR) (DmGPCR8 [3]): did not show any activity

pGlu-RFHSWGa [DLK-2]
EC50, intracellular calcium release (FLIPR) (DmGPCR7): picomoloar to subnanomolar range

pGlu-SSFHSWGa [LK-VI]
EC50, intracellular calcium release (FLIPR) (DmGPCR7): picomoloar to subnanomolar range
